Values quoted from earlier work, collected in patent publication US20170007630A1, “COMPOSITION AND METHOD OF DELIVERY OF L-ARABINOSE AND SELECT COMPOUNDS” (priority 2011, published 2017).

How the values were obtained:
sucrase [1] = target: T1, sucrase (Homo sapiens, UniProt P14410); details: compared with sucrose
[2] = one study conducted in China
sucrase [3] = target: T1, sucrase

T1 sequence (P14410 whole entry): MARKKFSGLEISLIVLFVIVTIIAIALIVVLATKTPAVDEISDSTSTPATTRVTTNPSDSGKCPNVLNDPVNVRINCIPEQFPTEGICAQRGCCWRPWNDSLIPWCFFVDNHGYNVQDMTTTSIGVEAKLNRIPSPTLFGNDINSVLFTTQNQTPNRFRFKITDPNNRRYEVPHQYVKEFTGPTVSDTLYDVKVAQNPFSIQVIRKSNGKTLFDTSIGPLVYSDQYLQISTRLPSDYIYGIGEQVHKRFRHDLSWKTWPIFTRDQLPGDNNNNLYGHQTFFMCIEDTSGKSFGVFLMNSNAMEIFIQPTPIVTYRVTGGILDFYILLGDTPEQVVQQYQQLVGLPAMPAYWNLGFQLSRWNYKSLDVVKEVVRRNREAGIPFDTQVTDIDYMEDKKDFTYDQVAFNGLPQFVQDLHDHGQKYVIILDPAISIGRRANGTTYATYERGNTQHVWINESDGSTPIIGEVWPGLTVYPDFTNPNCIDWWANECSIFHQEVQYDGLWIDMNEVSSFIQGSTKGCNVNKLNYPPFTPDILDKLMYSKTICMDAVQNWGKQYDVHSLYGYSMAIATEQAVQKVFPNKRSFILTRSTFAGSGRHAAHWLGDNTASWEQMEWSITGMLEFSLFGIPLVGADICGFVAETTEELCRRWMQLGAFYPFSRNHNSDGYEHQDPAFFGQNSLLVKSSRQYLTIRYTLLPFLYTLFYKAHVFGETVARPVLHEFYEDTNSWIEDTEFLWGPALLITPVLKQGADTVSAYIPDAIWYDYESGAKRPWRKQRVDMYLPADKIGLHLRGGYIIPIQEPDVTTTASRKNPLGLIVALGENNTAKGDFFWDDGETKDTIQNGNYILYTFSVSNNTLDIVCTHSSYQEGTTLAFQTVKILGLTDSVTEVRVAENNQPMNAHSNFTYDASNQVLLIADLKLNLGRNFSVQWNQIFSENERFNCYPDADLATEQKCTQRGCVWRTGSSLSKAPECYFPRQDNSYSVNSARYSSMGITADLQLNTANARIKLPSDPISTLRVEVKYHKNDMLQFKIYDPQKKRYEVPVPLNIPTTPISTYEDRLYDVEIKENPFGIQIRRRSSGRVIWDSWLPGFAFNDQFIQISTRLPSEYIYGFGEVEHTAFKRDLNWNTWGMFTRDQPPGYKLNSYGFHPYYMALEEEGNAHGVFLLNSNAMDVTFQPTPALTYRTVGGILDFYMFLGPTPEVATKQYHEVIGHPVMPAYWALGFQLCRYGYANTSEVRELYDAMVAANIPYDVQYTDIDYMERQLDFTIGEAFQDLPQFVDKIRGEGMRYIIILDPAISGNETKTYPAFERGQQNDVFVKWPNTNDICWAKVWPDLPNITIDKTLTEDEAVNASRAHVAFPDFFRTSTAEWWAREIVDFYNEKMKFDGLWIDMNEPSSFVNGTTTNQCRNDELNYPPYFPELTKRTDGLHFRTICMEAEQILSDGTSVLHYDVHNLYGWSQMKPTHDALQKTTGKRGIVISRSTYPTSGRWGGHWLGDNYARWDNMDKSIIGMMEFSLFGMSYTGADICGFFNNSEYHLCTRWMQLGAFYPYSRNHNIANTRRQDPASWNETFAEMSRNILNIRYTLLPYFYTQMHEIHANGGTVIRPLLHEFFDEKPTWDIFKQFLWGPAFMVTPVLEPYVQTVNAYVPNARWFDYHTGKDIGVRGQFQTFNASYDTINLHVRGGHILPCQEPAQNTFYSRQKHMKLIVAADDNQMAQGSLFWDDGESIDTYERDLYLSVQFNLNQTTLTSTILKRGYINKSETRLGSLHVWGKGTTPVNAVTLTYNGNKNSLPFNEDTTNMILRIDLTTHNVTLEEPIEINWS

O=C[C@H](O)[C@@H](O)[C@@H](O)CO [L-arabinose]
affinity to sucrase relative to sucrose (sucrase [1]): approximately 5 times
participants that experienced discomforts such as loose bowel or diarrhea [2]: about 40%
parts of sucrose inhibited from breakdown per one part of L-arabinose (sucrase [3]): up to 20 parts
